From ChEMBL document CHEMBL3994622, “Design and synthesis of new RAF kinase-inhibiting antiproliferative quinoline derivatives. Part 2: Diarylurea derivatives” (Eur J Med Chem, 2017)

How the values were obtained:
K562 = experiment: Growth inhibition of human K562 cells incubated for 48 hrs by sulforhodamine B assay; type: functional; conditions: K562, 48 h
MOLT-4 = experiment: Growth inhibition of human MOLT4 cells incubated for 48 hrs by sulforhodamine B assay; type: functional; conditions: MOLT-4, 48 h
EKVX = experiment: Growth inhibition of human EKVX cells incubated for 48 hrs by sulforhodamine B assay; type: functional
NCI-H226 = experiment: Growth inhibition of human NCI-H226 cells incubated for 48 hrs by sulforhodamine B assay; type: functional; conditions: NCI-H226, 48 h
NCI-H23 = experiment: Growth inhibition of human NCI-H23 cells incubated for 48 hrs by sulforhodamine B assay; type: functional; conditions: NCI-H23, 48 h
NCI-H322M = experiment: Growth inhibition of human NCI-H322M cells incubated for 48 hrs by sulforhodamine B assay; type: functional
NCI-H460 = experiment: Growth inhibition of human NCI-H460 cells incubated for 48 hrs by sulforhodamine B assay; type: functional; conditions: NCI-H460, 48 h
NCI-H522 = experiment: Growth inhibition of human NCI-H522 cells incubated for 48 hrs by sulforhodamine B assay; type: functional; conditions: NCI-H522, 48 h
HCC 2998 = experiment: Growth inhibition of human HCC2998 cells incubated for 48 hrs by sulforhodamine B assay; type: functional; conditions: HCC 2998, 48 h
HCT-15 = experiment: Growth inhibition of human HCT15 cells incubated for 48 hrs by sulforhodamine B assay; type: functional; conditions: HCT-15, 48 h
HT-29 = experiment: Growth inhibition of human HT-29 cells incubated for 48 hrs by sulforhodamine B assay; type: functional; conditions: HT-29, 48 h
KM12 = experiment: Growth inhibition of human KM12 cells incubated for 48 hrs by sulforhodamine B assay; type: functional; conditions: KM12, 48 h
SW-620 = experiment: Growth inhibition of human SW620 cells incubated for 48 hrs by sulforhodamine B assay; type: functional; conditions: SW-620, 48 h
SF-539 = experiment: Growth inhibition of human SF539 cells incubated for 48 hrs by sulforhodamine B assay; type: functional; conditions: SF-539, 48 h
SNB-75 = experiment: Growth inhibition of human SNB75 cells incubated for 48 hrs by sulforhodamine B assay; type: functional; conditions: SNB-75, 48 h
LOX IMVI = experiment: Growth inhibition of human LOXIMVI cells incubated for 48 hrs by sulforhodamine B assay; type: functional
MDA-MB-435 = experiment: Growth inhibition of human MDA-MB-435 cells incubated for 48 hrs by sulforhodamine B assay; type: functional; conditions: MDA-MB-435, 48 h
SK-MEL-2 = experiment: Growth inhibition of human SK-MEL-2 cells incubated for 48 hrs by sulforhodamine B assay; type: functional; conditions: SK-MEL-2, 48 h
UACC-62 = experiment: Growth inhibition of human UACC62 cells incubated for 48 hrs by sulforhodamine B assay; type: functional; conditions: UACC-62, 48 h
IGROV-1 = experiment: Growth inhibition of human IGROV1 cells incubated for 48 hrs by sulforhodamine B assay; type: functional; conditions: IGROV-1, 48 h
OVCAR-4 = experiment: Growth inhibition of human OVCAR4 cells incubated for 48 hrs by sulforhodamine B assay; type: functional; conditions: OVCAR-4, 48 h
OVCAR-8 = experiment: Growth inhibition of human OVCAR8 cells incubated for 48 hrs by sulforhodamine B assay; type: functional; conditions: OVCAR-8, 48 h
786-0 = experiment: Growth inhibition of human 786-0 cells incubated for 48 hrs by sulforhodamine B assay; type: functional; conditions: 786-0, 48 h
A498 = experiment: Growth inhibition of human A498 cells incubated for 48 hrs by sulforhodamine B assay; type: functional; conditions: A498, 48 h
ACHN = experiment: Growth inhibition of human ACHN cells incubated for 48 hrs by sulforhodamine B assay; type: functional
RXF 393 = experiment: Growth inhibition of human RXF393 cells incubated for 48 hrs by sulforhodamine B assay; type: functional; conditions: RXF 393, 48 h
SN12C = experiment: Growth inhibition of human SN12C cells incubated for 48 hrs by sulforhodamine B assay; type: functional
TK-10 = experiment: Growth inhibition of human TK10 cells incubated for 48 hrs by sulforhodamine B assay; type: functional; conditions: TK-10, 48 h
UO-31 = experiment: Growth inhibition of human UO31 cells incubated for 48 hrs by sulforhodamine B assay; type: functional; conditions: UO-31, 48 h
PC-3 = experiment: Growth inhibition of human PC3 cells incubated for 48 hrs by sulforhodamine B assay; type: functional; conditions: PC-3, 48 h
BT-549 = experiment: Growth inhibition of human BT549 cells incubated for 48 hrs by sulforhodamine B assay; type: functional; conditions: BT-549, 48 h
[1] = target: RAF proto-oncogene serine/threonine-protein kinase (Homo sapiens, UniProt P04049); experiment: Inhibition of human c-RAF at 10 uM using MEK1 as substrate in presence of [33P]ATP by Hotspot assay relative to control
RAF proto-oncogene serine/threonine-protein kinase, sequence (P04049 whole entry): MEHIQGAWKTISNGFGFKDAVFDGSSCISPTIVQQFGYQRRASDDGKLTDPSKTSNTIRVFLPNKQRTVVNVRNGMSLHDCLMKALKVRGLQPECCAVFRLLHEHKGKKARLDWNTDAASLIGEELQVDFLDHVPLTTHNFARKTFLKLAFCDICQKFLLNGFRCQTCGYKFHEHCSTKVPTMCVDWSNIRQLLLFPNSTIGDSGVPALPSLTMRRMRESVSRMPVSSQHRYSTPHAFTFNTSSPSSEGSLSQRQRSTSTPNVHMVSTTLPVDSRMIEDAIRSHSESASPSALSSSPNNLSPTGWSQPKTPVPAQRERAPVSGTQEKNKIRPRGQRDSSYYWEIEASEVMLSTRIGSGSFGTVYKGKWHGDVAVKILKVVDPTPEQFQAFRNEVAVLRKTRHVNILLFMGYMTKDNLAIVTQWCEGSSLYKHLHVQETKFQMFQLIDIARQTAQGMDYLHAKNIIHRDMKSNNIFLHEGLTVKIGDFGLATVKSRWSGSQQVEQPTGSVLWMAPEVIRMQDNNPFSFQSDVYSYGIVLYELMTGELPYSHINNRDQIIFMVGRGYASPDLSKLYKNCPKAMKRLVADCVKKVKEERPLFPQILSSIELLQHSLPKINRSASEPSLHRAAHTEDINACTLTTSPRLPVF

[2] = read-out: LC50 (the source's name)

COc1cc2cc(Oc3ccc(NC(=O)Nc4cccc(C(F)(F)F)c4)cc3)c(C)nc2cc1OC
GI50 (K562): 1.73 µM
LC50 (concentration killing 50% of cells) (K562): > 50 µM
TGI (K562): 14 µM
GI50 (MOLT-4): 1.55 µM
LC50 (MOLT-4): > 50 µM
TGI (MOLT-4): 6.87 µM
GI50 (EKVX): 1.48 µM
LC50 (concentration killing 50% of cells) (EKVX): > 50 µM
TGI (EKVX): 6.46 µM
GI50 (NCI-H226): 1.8 µM
TGI (NCI-H226): 5.6 µM
CC50 (NCI-H226; [2]): 28.8 µM
GI50 (NCI-H23): 1.7 µM
TGI (NCI-H23): 7.41 µM
CC50 (NCI-H23; [2]): > 50 µM
GI50 (NCI-H322M): 2.84 µM
TGI (NCI-H322M): 16.6 µM
CC50 (NCI-H322M; [2]): > 50 µM
GI50 (NCI-H460): 1.6 µM
TGI (NCI-H460): 6.02 µM
CC50 (NCI-H460; [2]): 34.9 µM
GI50 (NCI-H522): 1.32 µM
TGI (NCI-H522): 4.49 µM
CC50 (NCI-H522; [2]): 32.4 µM
GI50 (HCC 2998): 2.59 µM
TGI (HCC 2998): > 50 µM
CC50 (HCC 2998; [2]): > 50 µM
GI50 (HCT-15): 1.85 µM
LC50 (lethal concentration, 50% net cell kill) (HCT-15): > 50 µM
TGI (HCT-15): 22.2 µM
GI50 (HT-29): 2.05 µM
TGI (HT-29): 6.26 µM
CC50 (HT-29; [2]): 17.8 µM
GI50 (KM12): 1.42 µM
TGI (KM12): 5.92 µM
CC50 (KM12; [2]): 36.1 µM
GI50 (SW-620): 2.28 µM
LC50 (SW-620): > 50 µM
TGI (SW-620): 11.1 µM
GI50 (SF-539): 2.48 µM
TGI (SF-539): 8.74 µM
CC50 (SF-539; [2]): 25.4 µM
GI50 (SNB-75): 1.17 µM
TGI (SNB-75): 6.18 µM
CC50 (SNB-75; [2]): > 50 µM
GI50 (LOX IMVI): 1.84 µM
TGI (LOX IMVI): 6.61 µM
CC50 (LOX IMVI; [2]): 18.3 µM
GI50 (MDA-MB-435): 1.63 µM
TGI (MDA-MB-435): 10.1 µM
CC50 (MDA-MB-435; [2]): > 50 µM
GI50 (SK-MEL-2): 1.28 µM
TGI (SK-MEL-2): 2.87 µM
CC50 (SK-MEL-2; [2]): 9.93 µM
GI50 (UACC-62): 1.84 µM
TGI (UACC-62): 10.9 µM
CC50 (UACC-62; [2]): > 50 µM
GI50 (IGROV-1): 2.95 µM
TGI (IGROV-1): 24.9 µM
CC50 (IGROV-1; [2]): > 50 µM
GI50 (OVCAR-4): 2.3 µM
TGI (OVCAR-4): 9.7 µM
CC50 (OVCAR-4; [2]): 36 µM
GI50 (OVCAR-8): 1.71 µM
TGI (OVCAR-8): 6.28 µM
CC50 (OVCAR-8; [2]): 19.9 µM
GI50 (786-0): 1.74 µM
TGI (786-0): 9.24 µM
CC50 (786-0; [2]): > 50 µM
GI50 (A498): 1.29 µM
TGI (A498): 4.95 µM
CC50 (A498; [2]): 29.7 µM
GI50 (ACHN): 1.64 µM
TGI (ACHN): 7.71 µM
CC50 (ACHN; [2]): > 50 µM
GI50 (RXF 393): 1.63 µM
TGI (RXF 393): 4.97 µM
CC50 (RXF 393; [2]): 26.3 µM
GI50 (SN12C): 2.06 µM
TGI (SN12C): 16.3 µM
CC50 (SN12C; [2]): > 50 µM
GI50 (TK-10): 2.26 µM
TGI (TK-10): 9.93 µM
CC50 (TK-10; [2]): > 50 µM
GI50 (UO-31): 1.98 µM
TGI (UO-31): 10.8 µM
CC50 (UO-31; [2]): > 50 µM
GI50 (PC-3): 1.39 µM
TGI (PC-3): 5.49 µM
CC50 (PC-3; [2]): 30.4 µM
GI50 (BT-549): 1.43 µM
TGI (BT-549): 6.18 µM
CC50 (BT-549; [2]): 28.2 µM
inhibition [1]: 99.2%
